# Assay: log k′ (degree of lipophilic character) by gradient HPLC
# Format: physicochemical
# Conditions: XTerra MS C18 column; acetonitrile/pH6.8 buffer gradient 5:95-95:5/20 min
# Method: As to each compound, the measurement results of NMR or log k′ were disclosed.
# log k′ is a value which means degree of the lipophilic character, and is calculated by the following formula. log k′=log(tR−t0)/t0 • tR: retention time of compound under gradient condition • t0: retention time of standard material not retained in column
# XTerra MS C18 5 μm, 2.1×100 mm column (made by Waters) was used for measurement. The elution was a straight line inclination of acetonitrile/pH6.8 buffer (5:95˜95:5/20 min) at flow velocity 0.25 mL/min.
row,Compound,log k′
1,CC(C)COc1c(C(=O)N[C@H]2C3CC4CC2C[C@](OC(N)=O)(C4)C3)cnn1/C=C/C(C)(C)NC(=O)CCC1CCCC1 [Compound I-50],0.989
2,CC(=O)NC(C)(C)/C=C/n1ncc(C(=O)N[C@H]2C3CC4CC2C[C@](OC(N)=O)(C4)C3)c1OCC(C)C [Compound I-10],0.798
3,CC(C)COc1c(C(=O)N[C@H]2C3CC4CC2C[C@](OC(N)=O)(C4)C3)cnn1/C=C/C(C)(C)N1CCOC1=O [Compound I-22],0.879
4,CCNC(=O)C(C)(C)/C=C/n1ncc(C(=O)N[C@H]2C3CC4CC2C[C@](OC(N)=O)(C4)C3)c1OCC(C)C [Compound I-71],0.868
5,CC(=O)NC(C)(C)CCn1ncc(C(=O)N[C@H]2C3CC4CC2C[C@](OC(N)=O)(C4)C3)c1OCC(C)C [Compound I-11],0.831
6,CC(C)COc1c(C(=O)N[C@H]2C3CC4CC2C[C@](O)(C4)C3)cnn1/C=C/C(C)(C)NC(=O)C(C)C [Compound I-25],0.87
7,CC(C)COc1c(C(=O)N[C@H]2C3CC4CC2C[C@](O)(C4)C3)cnn1/C=C/C(C)(C)NC(=O)N1CCOCC1 [Compound I-81],0.813
8,CC(C)COc1c(C(=O)N[C@H]2C3CC4CC2C[C@](OC(N)=O)(C4)C3)cnn1/C=C/C(C)(C)NC(=O)C(C)C [Compound I-27],0.903
9,CCCC(=O)NC(C)(C)/C=C/n1ncc(C(=O)N[C@H]2C3CC4CC2C[C@](O)(C4)C3)c1OCC(C)C [Compound I-34],0.877
10,CONC(=O)C(C)(C)/C=C/n1ncc(C(=O)N[C@H]2C3CC4CC2C[C@](OC(N)=O)(C4)C3)c1OCC(C)C [Compound I-65],0.838
11,CC(C)COc1c(C(=O)N[C@H]2C3CC4CC2C[C@](O)(C4)C3)cnn1/C=C/C(C)(C)NC(=O)C1CCCC1 [Compound I-35],0.921
12,CC(=O)NC(C)(C)CCn1ncc(C(=O)N[C@H]2C3CC4CC2C[C@](COC(N)=O)(C4)C3)c1OCC(C)C [Compound I-57],0.852
13,CC(=O)NC(C)(C)/C=C/n1ncc(C(=O)N[C@H]2C3CCCC2C[C@@H](C(N)=O)C3)c1OCC(C)C [Compound I-42],0.805
14,CCC(=O)NC(C)(C)/C=C/n1ncc(C(=O)N[C@H]2C3CCCC2C[C@@H](COC(N)=O)C3)c1OCC(C)C [Compound I-70],0.882
15,CC(C)COc1c(C(=O)NC2C3CC4(O)CC2CC(O)(C3)C4)cnn1/C=C/C(C)(C)C(N)=O (stereo not shown) [Compound I-82],0.682
16,CC(=O)NC(C)(C)CCn1ncc(C(=O)N[C@H]2C3CC4CC2C[C@](CO)(C4)C3)c1OCC(C)C [Compound I-16],0.842
17,CC(C)COc1c(C(=O)N[C@H]2C3CC4CC2C[C@](OC(N)=O)(C4)C3)cnn1/C=C/C(C)(C)NC(=O)COc1ccccc1 [Compound I-75],0.95
18,CC(C)COc1c(C(=O)N[C@H]2C3CC4CC2C[C@](O)(C4)C3)cnn1/C=C/C(C)(C)NC(=O)CC(C)C [Compound I-26],0.895
19,CC(C)COc1c(C(=O)NC2CCCCCCCCC2)cnn1/C=C/C(C)(C)C(N)=O [Compound I-2],1.014
20,CCC(=O)N[C@]12CC3CC(C1)[C@@H](NC(=O)c1cnn(/C=C/C(C)(C)C(N)=O)c1OCC(C)C)C(C3)C2 [Compound I-20],0.845

row,Compound,log k′
1,CC(C)COc1c(C(=O)N[C@H]2C3CC4CC2C[C@](OC(N)=O)(C4)C3)cnn1/C=C/C(C)(C)NC(=O)CC(C)C [Compound I-28],0.927
2,CC(C)COc1c(C(=O)N[C@H]2C3CC4CC2C[C@](OC(N)=O)(C4)C3)cnn1/C=C/C(C)(C)NC(=O)C1CCOCC1 [Compound I-80],0.852
3,CNC(=O)OC[C@]12CC3CC(C1)[C@@H](NC(=O)c1cnn(/C=C/C(C)(C)NC(C)=O)c1OCC(C)C)C(C3)C2 [Compound I-66],0.886
4,COC(=O)NC(C)(C)/C=C/n1ncc(C(=O)N[C@H]2C3CC4CC2C[C@](COC(N)=O)(C4)C3)c1OCC(C)C [Compound I-17],0.916
5,CC(C)COc1c(C(=O)N[C@H]2C3CC4CC2C[C@](O)(C4)C3)cnn1/C=C/C(C)(C)NC(=O)C1CCOCC1 [Compound I-79],0.818
6,COC(=O)NC(C)(C)/C=C/n1ncc(C(=O)N[C@H]2C3CCCC2C[C@@H](COC(N)=O)C3)c1OCC(C)C [Compound I-46],0.913
7,COC(=O)NC(C)(C)/C=C/n1ncc(C(=O)NC23CCC(C(N)=O)(CC2)C3)c1OCC(C)C [Compound I-13],0.822
8,CC(=O)NC[C@]12CC3CC(C1)[C@@H](NC(=O)c1cnn(/C=C/C(C)(C)NC(C)=O)c1OCC(C)C)C(C3)C2 [Compound I-56],0.838
9,CC(=O)NC(C)(C)/C=C/n1ncc(C(=O)N[C@H]2C3CCCC2C[C@H](C(N)=O)C3)c1OCC(C)C [Compound I-5],0.795
10,CC(=O)NC(C)(C)/C=C/n1ncc(C(=O)NC23CCC(C(N)=O)(CC2)C3)c1OCC(C)C [Compound I-12],0.763
11,CC(C)COc1c(C(=O)N[C@H]2C3CC4CC2C[C@](COC(N)=O)(C4)C3)cnn1/C=C/C(C)(C)CO [Compound I-74],0.896
12,CC(C)COc1c(C(=O)N[C@H]2C3CC4CC2C[C@](OC(N)=O)(C4)C3)cnn1/C=C/C(C)(C)NC(=O)C1CCCC1 [Compound I-49],0.945
13,CCC(=O)NC(C)(C)/C=C/n1ncc(C(=O)N[C@H]2C3CC4CC2C[C@](OC(N)=O)(C4)C3)c1OCC(C)C [Compound I-24],0.876
14,COC(=O)NC(C)(C)CCn1ncc(C(=O)N[C@H]2C3CC4CC2C[C@](COC(N)=O)(C4)C3)c1OCC(C)C [Compound I-58],0.899
15,CCONC(=O)[C@]12CC3CC(C1)[C@@H](NC(=O)c1cnn(/C=C/C(C)(C)NC(C)=O)c1OCC(C)C)C(C3)C2 [Compound I-59],0.833
16,COC(=O)N[C@]12CC3CC(C1)[C@@H](NC(=O)c1cnn(/C=C/C(C)(C)NC(C)=O)c1OCC(C)C)C(C3)C2 [Compound I-54],0.886
17,CNC(=O)C(C)(C)/C=C/n1ncc(C(=O)N[C@H]2C3CC4CC2C[C@](OC(N)=O)(C4)C3)c1OCC(C)C [Compound I-61],0.841
18,CC(=O)NC(C)(C)/C=C/n1ncc(C(=O)N[C@H]2C3CCCC2C[C@@H](COC(N)=O)C3)c1OCC(C)C [Compound I-45],0.865
19,CC(=O)NC(C)(C)/C=C/n1ncc(C(=O)N[C@H]2C3CCCC2C[C@@H](CO)C3)c1OCC(C)C [Compound I-43],0.851
20,CCC(=O)N[C@]12CC3CC(C1)[C@@H](NC(=O)c1cnn(/C=C/C(C)(C)NC(=O)OC)c1OCC(C)C)C(C3)C2 [Compound I-21],0.909

row,Compound,log k′
1,CC(=O)NCC(C)(C)/C=C/n1ncc(C(=O)N[C@H]2C3CC4CC2C[C@](OC(N)=O)(C4)C3)c1OCC(C)C [Compound I-68],0.85
2,Cc1nnc(C(C)(C)/C=C/n2ncc(C(=O)N[C@H]3C4CC5CC3C[C@](OC(N)=O)(C5)C4)c2OCC(C)C)o1 [Compound I-8],0.883
3,C=CCC1C2CCC(C2)C1NC(=O)c1cnn(/C=C/C(C)(C)NC(C)=O)c1OCC(C)C (stereo not shown) [Compound I-14],0.981
4,CONC(=O)[C@]12CC3CC(C1)[C@@H](NC(=O)c1cnn(/C=C/C(C)(C)NC(C)=O)c1OCC(C)C)C(C3)C2 [Compound I-60],0.813
5,COC(=O)NC(C)(C)/C=C/n1ncc(C(=O)N[C@H]2C3CCCC2C[C@@H](C#N)C3)c1OCC(C)C [Compound I-33],0.955
6,CC(C)COc1c(C(=O)N[C@H]2C3CC4CC2C[C@](OC(N)=O)(C4)C3)cnn1/C=C/C(C)(C)NC(=O)CCc1ccccc1 [Compound I-76],0.946
7,CC(C)COc1c(C(=O)NC2C3CC4CC2CC(OC(N)=O)(C4)C3)cnn1/C=C/C(C)(C)CO (stereo not shown) [Compound I-73],0.876
8,CC(C)COc1c(C(=O)N[C@H]2C3CC4CC2C[C@](OC(N)=O)(C4)C3)cnn1/C=C/C(C)(C)C(=O)NC(N)=O [Compound I-18],0.866
9,CONC(=O)C(C)(C)/C=C/n1ncc(C(=O)N[C@H]2C3CC4CC2C[C@](O)(C4)C3)c1OCC(C)C [Compound I-62],0.794
10,CC(=O)NCC(C)(C)/C=C/n1ncc(C(=O)N[C@H]2C3CC4CC2C[C@](O)(C4)C3)c1OCC(C)C [Compound I-64],0.814
11,COC(=O)NC(C)(C)/C=C/n1ncc(C(=O)N[C@H]2C3CC4CC2C[C@](CO)(C4)C3)c1OCC(C)C [Compound I-19],0.907
12,CC(=O)NC(C)(C)/C=C/n1ncc(C(=O)N[C@H]2C3CC4CC2C[C@](CO)(C4)C3)c1OC(C)C [Compound I-31],0.819
13,CC(=O)NC(C)(C)/C=C/n1ncc(C(=O)N[C@H]2C3CC4CC2C[C@](C(=O)NC(N)=O)(C4)C3)c1OCC(C)C [Compound I-67],0.82
14,COC(=O)NC(C)(C)/C=C/n1ncc(C(=O)NC2CCCCCCCCC2)c1OCC(C)C [Compound I-3],1.066
15,COCC(=O)NC(C)(C)/C=C/n1ncc(C(=O)N[C@H]2C3CC4CC2C[C@](OC(N)=O)(C4)C3)c1OCC(C)C [Compound I-51],0.882
16,CC(C)COc1c(C(=O)N[C@H]2C3CC4CC2C[C@](COC(N)=O)(C4)C3)cnn1/C=C/C(C)(C)C(=O)NC(N)=O [Compound I-83],0.87
17,CCC(=O)NC(C)(C)/C=C/n1ncc(C(=O)N[C@H]2C3CCCC2C[C@@H](CO)C3)c1OCC(C)C [Compound I-69],0.866
18,COC(=O)NC(C)(C)/C=C/n1ncc(C(=O)N[C@H]2C3CC4CC2C[C@](CO)(C4)C3)c1OC(C)C [Compound I-23],0.864
